In patent US20240158446A1, “CYCLIC COMPOUND HAVING SELECTIVE INHIBITORY ACTION ON KRAS OVER HRAS AND NRAS” (CHUGAI SEIYAKU KABUSHIKI KAISHA, priority 2021, published 2024):
Where two headings read alike, the source gives them in different places. *1 amine or outer side, *2 acyl side, *3 side chain or, on linkers, in order; H or OH if unused. Where a SMILES comes first, the peptide text is derived from it. Bridges are numbered along the chain shown (N, C = ends). [ ]: non-standard residue; d: D form. The star is where a group is joined. hPhe(3-Cl-4-CF3) = N[C@@H](CCc1ccc(C(F)(F)F)c(Cl)c1)C(=O)O; NPrPhe(4-CF3) = CCCN[C@@H](Cc1ccc(C(F)(F)F)cc1)C(=O)O; X20 = Cc1ccc(C[C@@H](C(=O)[*:2])N(CC2CCCC2)[*:1])cc1; NMeGly(cPent) = CN[C@H](C(=O)O)C1CCCC1; NMeD = CN[C@@H](CC(=O)O)C(=O)O; NMeL = CN[C@@H](CC(C)C)C(=O)O; Morpholide = C1CN(*)CCO1; NAllylGly = C=CCNCC(=O)O; Ac5c = NC1(C(=O)O)CCCC1; Sar = CNCC(=O)O

Key:
[1] = molecular target: GDP-bound KRAS wild-type protein (Homo sapiens, UniProt P01116); assay: Binding to KRAS by surface plasmon resonance (SPR), Single Cycle Kinetics; conditions: GDP-bound KRAS wild-type protein, read-out: KRAS KD
[2] = molecular target: GDP-bound NRAS wild-type protein (Homo sapiens, UniProt P01111); assay: Binding to NRAS by surface plasmon resonance (SPR), Single Cycle Kinetics; conditions: SPR, GDP-bound NRAS wild-type protein vs GDP-bound KRAS wild-type protein
[3] = molecular target: GDP-bound HRAS wild-type protein (Homo sapiens, UniProt P01112); assay: Binding to HRAS by surface plasmon resonance (SPR), Single Cycle Kinetics; conditions: SPR, GDP-bound HRAS wild-type protein vs GDP-bound KRAS wild-type protein
[4] = SPR Single Cycle Kinetics, 1:1 binding model

GDP-bound HRAS wild-type protein, sequence (P01112 whole entry): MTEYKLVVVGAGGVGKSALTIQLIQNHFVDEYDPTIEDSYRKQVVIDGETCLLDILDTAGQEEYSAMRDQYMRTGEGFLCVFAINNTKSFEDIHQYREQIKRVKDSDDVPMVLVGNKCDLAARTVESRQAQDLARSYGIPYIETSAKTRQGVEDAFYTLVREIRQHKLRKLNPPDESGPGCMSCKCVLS
GDP-bound KRAS wild-type protein, sequence (P01116 whole entry): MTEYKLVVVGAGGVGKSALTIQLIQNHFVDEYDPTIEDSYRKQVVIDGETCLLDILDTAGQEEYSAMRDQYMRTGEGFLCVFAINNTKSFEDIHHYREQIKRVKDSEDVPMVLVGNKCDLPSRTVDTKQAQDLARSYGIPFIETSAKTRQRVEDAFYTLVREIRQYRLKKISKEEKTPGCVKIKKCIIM
GDP-bound NRAS wild-type protein, sequence (P01111 whole entry): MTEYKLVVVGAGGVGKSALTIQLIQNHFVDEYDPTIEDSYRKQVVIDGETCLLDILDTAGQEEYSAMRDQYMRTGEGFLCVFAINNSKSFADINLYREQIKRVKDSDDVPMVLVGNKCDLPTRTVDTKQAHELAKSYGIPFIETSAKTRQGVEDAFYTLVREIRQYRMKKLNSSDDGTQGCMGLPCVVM

SMILES	Kd ([1]; SPR, Single Cycle Kinetics) [nM]	NRAS/KRAS (ratio of KD value for NRAS to KD value for KRAS) [2]	HRAS/KRAS (ratio of KD value for HRAS to KD value for KRAS) [3]	Kd [1, 4] [nM]	also measured
C#CC[C@H]1C(=O)N[C@@H]([C@@H](C)CC)C(=O)N(C)CC(=O)N(C)[C@H]2C/C=C\CCN(C2=O)[C@@H](Cc2ccc(C(F)(F)F)cc2)C(=O)N(C)CC(=O)N[C@@H](CCc2cc(F)c(C(F)(F)F)c(F)c2)C(=O)N2C[C@@H](C)C[C@H]2C(=O)NC2(CC(C)(C)C2)C(=O)N(C)[C@@H](C2CCCC2)C(=O)N(C)[C@H](C(=O)N(C)CCC)CC(=O)N1C [PP2076]	0.39	A (a compound having 10 or more and less than 20 is denoted as A)	A (a compound having 10 or more and less than 20 is denoted as A)	–	–
CCC[C@H]1C(=O)N[C@@H](C(CC)CC)C(=O)N(C)CC(=O)N(C)[C@H]2C/C=C\CCN(C2=O)[C@@H](Cc2ccc(C)cc2)C(=O)N(C)CC(=O)N[C@@H](CCc2ccc(C(F)(F)F)c(Cl)c2)C(=O)N2C[C@H](OCC)C[C@H]2C(=O)NC2(CC(C)(C)C2)C(=O)N(C)[C@@H](C2CCCC2)C(=O)N(C)[C@H](C(=O)N(C)C)CC(=O)N1C [PP2209]	0.81	A (a compound having 10 or more and less than 20 is denoted as A)	A (a compound having 10 or more and less than 20 is denoted as A)	–	–
CCO[C@@H]1C[C@H]2C(=O)NC3(CC(C)(C)C3)C(=O)N(C)[C@@H](C(CC)CC)C(=O)N(C)[C@H](C(=O)N(C)C)CC(=O)N(C)[C@@H](COC)C(=O)N[C@@H]([C@@H](C)CC)C(=O)N(C)CC(=O)N(C)[C@H]3C/C=C\CCN(C3=O)[C@@H](Cc3ccc(C(F)(F)F)cc3)C(=O)N(C)CC(=O)N[C@@H](CCc3ccc(C(F)(F)F)c(OC)c3)C(=O)N2C1 [PP2157]	0.19	A (a compound having 10 or more and less than 20 is denoted as A)	A (a compound having 10 or more and less than 20 is denoted as A)	–	–
CC[C@H](C)[C@@H]1NC(=O)[C@H](CC(C)C)N(C)C(=O)C[C@@H](C(=O)N2CCOCC2)N(C)C(=O)[C@H](C2CCCC2)N(C)C(=O)C2(CCCC2)NC(=O)[C@@H]2CCCN2C(=O)[C@H](CCc2ccc(C(F)(F)F)c(Cl)c2)NC(=O)CN(C)C(=O)[C@H](Cc2ccc(C)cc2)N(CC2CCCC2)C(=O)CN(C)C(=O)CN(C)C1=O [PP0096] ([NMeL]I[Sar][Sar][X20][Sar][hPhe(3-Cl-4-CF3)]P[Ac5c][NMeGly(cPent)][NMeD]-Morpholide; lactam N-11)	–	C (A compound having a KD ratio of 0.1 or more and less than 3 is denoted as C)	C (A compound having a KD ratio of 0.1 or more and less than 3 is denoted as C)	2.8	–
C=CCN1CC(=O)N(C)CC(=O)N(CCC)[C@@H](Cc2ccc(C(F)(F)F)cc2)C(=O)N(C)CC(=O)N[C@@H](CCc2ccc(C(F)(F)F)c(Cl)c2)C(=O)N2CCC[C@H]2C(=O)NC2(CCCC2)C(=O)N(C)[C@@H](C2CCCC2)C(=O)N(C)[C@H](C(=O)N2CCOCC2)CC(=O)N(C)[C@@H](CC(C)C)C(=O)N[C@@H]([C@@H](C)CC)C1=O [PP0749] ([NMeL]I[NAllylGly][Sar][NPrPhe(4-CF3)][Sar][hPhe(3-Cl-4-CF3)]P[Ac5c][NMeGly(cPent)][NMeD]-Morpholide; lactam N-11)	–	–	–	0.59	NRAS/KRAS (ratio of KD value with respect to NRAS to KD value with respect to KRAS) [2]: B (a compound having 3 or more and less than 10 is denoted as B); HRAS/KRAS (ratio of KD value with respect to HRAS to KD value with respect to KRAS) [3]: C (A compound having a KD ratio of 0.1 or more and less than 3 is denoted as C)
CCCOC[C@H]1C(=O)N[C@@H]([C@@H](C)CC)C(=O)N(C)CC(=O)N(C)[C@H]2C/C=C\CCN(C2=O)[C@@H](Cc2ccc(C)cc2)C(=O)N(C)CC(=O)N[C@@H](CCc2cc(F)c(C(F)(F)F)c(F)c2)C(=O)N2C[C@H](OCC)C[C@H]2C(=O)NC2(CCCC2)C(=O)N(C)[C@@H](C2CCCC2)C(=O)N(C)[C@H](C(=O)N2CCCC2)CC(=O)N1C [PP1401]	–	–	–	–	Kd ([1]; SPR, Single Cycle Kinetics, 1:1 binding model): 0.26 nM; NRAS/KRAS (ratio of KD value for NRAS to KD value for KRAS) ([2]; KD ratio class): A (a compound having 10 or more and less than 20 is denoted as A); HRAS/KRAS (ratio of KD value for HRAS to KD value for KRAS) ([3]; KD ratio class): A (a compound having 10 or more and less than 20 is denoted as A)
